Legend:
[1] = Degree of agglomeration visually evaluated after storage; assay type: physicochemical; settings: visual score, good: 0 to poor: 5; after 1 week at 40° C. and 60% relative humidity
pH of granules = assay type: physicochemical; settings: granules of Table 8 (bubbling tower, different carbon dioxide input times)

Compound: Cl.NCCCC[C@H](N)C(=O)O [Comparative Example 7, L-Lysine hydrochloride]
- Degree of agglomeration (good: 0-poor: 5) [1]: 1
- pH (pH of granules): 5.8

— patent US20260020586A1, “METHOD OF PREPARING GRANULAR FEED ADDITIVE” (CJ CHEILJEDANG CORPORATION, priority 2020, published 2026)
